Earlier results as cited in patent US8716182B2, “Liquid aqueous crop protection formulations” (BASF SE, priority 2008, dated 2014).

Settings: miscible means fully miscible with water

Row | Compound | solubility in water at 20° C.
1 | OCCOc1ccccc1 [Agrisol PX401, 2-phenoxyethanol] | (24 g/l)
2 | COCC(C)OC(C)=O (stereo not shown) [Arcosolv ® PMA, 1-methoxy-2-propanol acetate] | acetate)(400 g/l)
3 | C[S+](C)[O-] [DMSO, dimethyl sulfoxide] | (miscible)
4 | CCCOC(=O)C(C)O (stereo not shown) [Purasolv ® NPL, n-propyl lactate] | (miscible)
5 | OCC1CCCO1 (stereo not shown) [tetrahydrofurfuryl alcohol] | (miscible)
6 | CC(=O)OCC(COC(C)=O)OC(C)=O [triacetin] | (64 g/l)
7 | O=C1CCCO1 [γ-butryrolacton, γ-butyrolactone] | (miscible)
